In assay [1] the test system is human iPSC-derived kidney organoids. As to the kind of experiment: Confocal imaging of PECAM1+ vasculature around NPHS1+ or WT1+ glomerular structure in kidney organoids. The format is cell-based. Conditions: Protocol B: VEGF (days 6, 9, 12, 14) and 10 μM Compound 1 (day 12) added together to Protocol A; FIG. 2A. The method, then: While Protocol B was largely similar to Protocol A, to enhance a vascular network, VEGF (10 ng/ml, 20 ng/ml, 30 ng/ml, and 50 ng/ml each) was treated on days 6, 9, 12, and 14, and to enhance podocyte differentiation, 10 μM Compound 1 was treated on day 12. For immunofluorescent analysis, organoids were fixed on day 18 unless otherwise noted. Specifically, for fixation, equal volumes of PBS (Thermo Fisher Scientific) and 8% paraformaldehyde (Electron Microscopy Sciences) were added to a medium for 15 minutes, and then the sample was washed with PBS three times. Subsequently, the fixed organoid culture was blocked with 5% donkey serum (Millipore)+0.3% Triton-X-100/PBS. Afterward, the blocked organoid culture was incubated in PBS containing 3% bovine serum albumin (Sigma)+ primary antibodies [anti-acetylated tubulin (Sigma-Aldrich T7451, 1:200), anti-collagen IV (Southern Biotech 1340-01, 1:300), anti-cytokeratin 8 (Abcam ab9023, 1:200), anti-GATA3 (R&D AF2605, 1:200), anti-Gb3 (TCI […], 1:200), anti-GLA (Thermo Fisher Scientific PA5-27349, 1:1000), anti-laminin (Sigma-Aldrich L9393. 1:200), anti-LTL (Vector Labs FL-1321, 1:200 dilution), […]32 (BD Pharmingen 555849, 1:200), anti-NPHS1 ([…] (Abcam ab9498, 1:200), anti-TUBA4A (Abcam ab24610, 1:200), and anti-WT1 (Abcam ab89901, 1:200)] overnight, washed, and then incubated with Alexa Fluor secondary antibodies (Invitrogen). […]

Assay [2] concerns GLA mutant kidney organoids. Kind of assay: Immunofluorescent staining of Gb3 (Gb3 positive area) in GLA mutant kidney organoids. To be noted: GLA mutant kidney organoids (Protocol B) after treatment with agalsidase-α (ERT); FIGS. 4D and 4E. The format is cell-based, human. The method, then: For immunofluorescent analysis, organoids were fixed on day 18 unless otherwise noted. Specifically, for fixation, equal volumes of PBS (Thermo Fisher Scientific) and 8% paraformaldehyde (Electron Microscopy Sciences) were added to a medium for 15 minutes, and then the sample was washed with PBS three times. Subsequently, the fixed organoid culture was blocked with 5% donkey serum (Millipore)+0.3% Triton-X-100/PBS. Afterward, the blocked organoid culture was incubated in PBS containing 3% bovine serum albumin (Sigma)+ primary antibodies [anti-acetylated tubulin (Sigma-Aldrich T7451, 1:200), anti-collagen IV (Southern Biotech 1340-01, 1:300), anti-cytokeratin 8 (Abcam ab9023, 1:200), anti-GATA3 (R&D AF2605, 1:200), anti-Gb3 (TCI A2506, 1:200), anti-GLA (Thermo Fisher Scientific PA5-27349, 1:1000), anti-laminin (Sigma-Aldrich L9393. 1:200), anti-LTL (Vector Labs FL-1321, 1:200 dilution), antiMECA32 (BD Pharmingen 555849, 1:200), anti-NPHS1 (R&D AF4269, 1:200), anti-Pecaml (Abcam ab9498, 1:200), anti-TUBA4A (Abcam ab24610, 1:200), and anti-WT1 (Abcam ab89901, 1:200)] overnight, washed, and then incubated with Alexa Fluor secondary antibodies (Invitrogen). Afterward, the resulting organoids were washed and stained with DAPI, or mounted using Vectashield H-1000. Images were obtained using a Zeiss LSM 700 confocal microscope (Carl Zeiss, Germany) and ZEN 3.1 software. […]

Assay [3] concerns GLA mutant kidney organoids. Kind of assay: Immunofluorescent staining of NPHS1, PECAM1 and LTL: vasculopathy phenotype in GLA mutant kidney organoids. To be noted: GLA mutant kidney organoids produced by Protocol B, ERT; FIG. 4F. The format is cell-based, human. The method, then:
For immunofluorescent analysis, organoids were fixed on day 18 unless otherwise noted. Specifically, for fixation, equal volumes of PBS (Thermo Fisher Scientific) and 8% paraformaldehyde (Electron Microscopy Sciences) were added to a medium for 15 minutes, and then the sample was washed with PBS three times. Subsequently, the fixed organoid culture was blocked with 5% donkey serum (Millipore)+0.3% Triton-X-100/PBS. […]
Next, the phenotype of the vasculopathy in Fabry disease was determined using GLA mutant kidney organoids produced by Protocol B. Immunofluorescent staining analyses of NPHS1, PECAM1, and LTL were conducted on the wild type, GLA mutant kidney organoids, and human recombinant agalsidase-α-treated GLA mutant kidney organoids.

Entries after “also recorded” stand apart in the source; their conditions may differ.

For VEGF, the “vascularization surrounding the glomerular structure” value in assay [1] is “significantly improved”.

Consider `NC(=O)c1ccc(-c2nc(-c3ccc4c(c3)OCO4)c(-c3ccccn3)[nH]2)cc1` [Compound 1, 4-[4-(1,3-benzodioxol-5-yl)-5-pyridin-2-yl-1H-imidazol-2-yl]benzamide, reference compound], for which the “vascularization surrounding the glomerular structure” value in assay [1] is listed as “significantly improved”.

B1: agalsidase-α: recombinant human agalsidase-α used as recombinant enzyme replacement therapy (ERT) (protein, UniProt P06280 32-429, looked up)
Alpha-galactosidase A: LDNGLARTPTMGWLHWERFMCNLDCQEEPDSCISEKLFMEMAELMVSEGWKDAGYEYLCIDDCWMAPQRDSEGRLQADPQRFPHGIRQLANYVHSKGLKLGIYADVGNKTCAGFPGSFGYYDIDAQTFADWGVDLLKFDGCYCDSLENLADGYKHMSLALNRTGRSIVYSCEWPLYMWPFQKPNYTEIRQYCNHWRNFADIDDSWKSIKSILDWTSFNQERIVDVAGPGGWNDPDMLVIGNFGLSWNQQVTQMALWAIMAAPLFMSNDLRHISPQAKALLQDKDVIAINQDPLGKQGYQLRQGDNFEVWERPLSGLAWAVAMINRQEIGGPRSYTIAVASLGKGVACNPACFITQLLPVKRKLGFYEWTSRLRSHINPTGTVLLQLENTMQMSLKDLL
With B1, the Gb3 accumulation entry in assay [2] is given as “decreased”. Further, in assay [3], the “vascular network (glomerular angiogenesis and formation of large lumen vessels)” value is “restored the vascular network; also recorded: restored a vascular network”.
